Measured values taken from US20160185797A1, “ALKYNYL ALCOHOLS AND METHODS OF USE” (Genentech, Inc., priority 2013, published 2016).

Molecular target: T1, nuclear factor-kappa B (NF-kB)-inducing kinase (NIK) (Homo sapiens, UniProt Q99558)
T1 construct: made in house; host or cells: baculovirus-infected insect cells
Assay: NIK enzyme inhibition assay (Transcreener ADP fluorescence polarization, NIK ADP-FP)
Format: biochemical

T1 sequence (Q99558 whole entry): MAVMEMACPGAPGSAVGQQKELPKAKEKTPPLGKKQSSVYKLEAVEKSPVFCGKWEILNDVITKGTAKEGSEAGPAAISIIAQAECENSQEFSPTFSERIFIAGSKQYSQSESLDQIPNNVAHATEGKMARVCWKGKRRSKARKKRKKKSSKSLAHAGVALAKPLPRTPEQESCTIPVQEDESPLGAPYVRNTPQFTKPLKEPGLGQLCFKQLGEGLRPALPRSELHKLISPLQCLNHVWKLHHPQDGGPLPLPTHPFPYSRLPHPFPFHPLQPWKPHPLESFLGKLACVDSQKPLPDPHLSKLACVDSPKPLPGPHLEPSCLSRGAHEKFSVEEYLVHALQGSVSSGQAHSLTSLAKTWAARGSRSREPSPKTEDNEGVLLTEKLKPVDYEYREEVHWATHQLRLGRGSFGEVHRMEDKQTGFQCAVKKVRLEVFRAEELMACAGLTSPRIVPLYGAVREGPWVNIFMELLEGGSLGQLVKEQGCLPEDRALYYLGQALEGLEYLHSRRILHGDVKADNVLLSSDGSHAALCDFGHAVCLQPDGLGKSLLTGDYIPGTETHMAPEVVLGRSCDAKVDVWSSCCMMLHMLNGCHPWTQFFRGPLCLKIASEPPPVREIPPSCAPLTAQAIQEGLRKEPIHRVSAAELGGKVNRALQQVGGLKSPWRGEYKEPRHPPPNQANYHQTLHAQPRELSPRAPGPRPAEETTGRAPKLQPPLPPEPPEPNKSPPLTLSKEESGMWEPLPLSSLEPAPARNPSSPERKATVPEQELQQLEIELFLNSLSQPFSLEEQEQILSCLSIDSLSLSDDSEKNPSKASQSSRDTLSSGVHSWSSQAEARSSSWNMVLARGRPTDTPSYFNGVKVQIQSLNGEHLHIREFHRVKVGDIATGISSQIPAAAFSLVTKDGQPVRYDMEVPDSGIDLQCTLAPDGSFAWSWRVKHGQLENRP

| SMILES | Ki |
| --- | --- |
| CN1CC[C@@](O)(C#Cc2cccc(-c3nc(N[C@H]4CCOC4)cc(C(N)=O)n3)c2)C1=O (single isomer, unassigned) [Example 30] | 23.2 nM |
| NC(=O)c1nc(-c2cccc(C#C[C@]3(O)CCOC3=O)c2)ccc1N (single isomer, unassigned) [Example 64] | 4.07 nM |
| NC(=O)c1nc(-c2cccc(C#C[C@@]3(O)CCOC3=O)c2)ccc1N (single isomer, unassigned) [Example 65] | 38 nM |
| CN1CCC(O)(C#Cc2cccc(-c3nc(C(N)=O)ncc3NCC(F)(F)F)c2)C1=O (stereo in doubt) [Example 147, 4-[3-[2-[(3R)-3-hydroxy-1-methyl-2-oxo-pyrrolidin-3-yl]ethynyl]phenyl]-5-(2,2,2-trifluoroethylamino) pyrimidine-2-carboxamide] | 879 nM |
| CC(=O)N1CCN(c2cc(C(N)=O)nc(-c3cccc(C#C[C@]4(O)CCN(C)C4=O)c3)n2)CC1 [Example 7, 6-(4-acetylpiperazin-1-yl)-2-[3-[2-[(3R)-3-hydroxy-1-methyl-2-oxo-pyrrolidin-3-yl]ethynyl]phenyl]pyrimidine-4-carboxamide] | 1.25 nM |
| CN1CC[C@@](O)(C#Cc2cccc(-c3nc(C(N)=O)cc(N4CC[C@@H](O)C4)n3)c2)C1=O [Example 24, 2-[3-[2-[(3R)-3-hydroxy-1-methyl-2-oxo-pyrrolidin-3-yl]ethynyl]phenyl]-6-[(3R)-3-hydroxypyrrolidin-1-yl] pyrimidine-4-carboxamide] | 1.05 nM |
| CC(C)C[C@H]1CCCN1c1cc(C(N)=O)nc(-c2cccc(C#C[C@]3(O)CCN(C)C3=O)c2)n1 [Example 25, 2-[3-[2-[(3R)-3-hydroxy-1-methyl-2-oxo-pyrrolidin-3-yl]ethynyl]phenyl]-6-[(2R)-2-isobutylpyrrolidin-1-yl] pyrimidine-4-carboxamide] | 5.57 nM |
| Cc1cnc([C@@](C)(O)C#Cc2cccc(-c3nc(C(N)=O)c4ccn(C)c4n3)c2)o1 [Example 54, 2-[3-[(3S)-3-hydroxy-3-(5-methyloxazol-2-yl)but-1-ynyl]phenyl]-7-methyl-pyrrolo[2,3-d] pyrimidine-4-carboxamide] | 510 nM |
| CN1CC[C@@](O)(C#Cc2cccc(-c3nc(C(N)=O)cc4nccn34)c2)C1=O [Example 61, 5-[3-[2-[(3R)-3-hydroxy-1-methyl-2-oxo-pyrrolidin-3-yl]ethynyl]phenyl]imidazo [1,2-c]pyrimidine-7-carboxamide] | 4.33 nM |
| CN1CC[C@@](O)(C#Cc2cccc(-c3nccc(C(N)=O)n3)c2F)C1=O [Example 91, 2-[2-fluoro-3-[2-[(3R)-3-hydroxy-1-methyl-2-oxo-pyrrolidin-3-yl]ethynyl]phenyl]pyrimidine-4-carboxamide] | 14.4 nM |
| CN1CC[C@@](O)(C#Cc2cccc(-c3ncc(N4CCOCC4)c(C(N)=O)n3)c2)C1=O [Example 103, 2-[3-[2-[(3R)-3-hydroxy-1-methyl-2-oxo-pyrrolidin-3-yl]ethynyl]phenyl]-5-morpholino-pyrimidine-4-carboxamide] | 22.8 nM |
| CC(C)n1ncc2c(-c3cccc(C#C[C@]4(O)CCN(C)C4=O)c3)nc(C(N)=O)cc21 [Example 115, 4-[3-[2-[(3R)-3-hydroxy-1-methyl-2-oxo-pyrrolidin-3-yl]ethynyl]phenyl]-1-isopropyl-pyrazolo[4,3-c]pyridine-6-carboxamide] | 1.77 nM |
| Cc1nnc([C@](C)(O)C#Cc2cccc(-c3nccc(C(N)=O)n3)c2)o1 [Example 138, 2-[3-[(3R)-3-hydroxy-3-(5-methyl-1,3,4-oxadiazol-2-yl)but-1-ynyl]phenyl]pyrimidine-4-carboxamide] | 60.2 nM |
| Cc1ccc(C(N)=O)nc1-c1cccc(C#C[C@]2(O)CCN(C)C2=O)c1 [Example 140, 6-[3-[2-[(3R)-3-hydroxy-1-methyl-2-oxo-pyrrolidin-3-yl]ethynyl]phenyl]-5-methyl-pyridine-2-carboxamide] | 23.8 nM |
| CN1CC[C@@](O)(C#Cc2cc(-c3nccc(C(N)=O)n3)c3cn[nH]c3c2)C1=O [Example 156, 2-[6-[2-[(3R)-3-hydroxy-1-methyl-2-oxo-pyrrolidin-3-yl]ethynyl]-1H-indazol-4-yl] pyrimidine-4-carboxamide] | 11.3 nM |
| CN1CC[C@@](O)(C#Cc2cccc(-c3ccc(F)c(C(N)=O)n3)c2)C1=O [Example 157, 3-fluoro-6-[3-[2-[(3R)-3-hydroxy-l-methyl-2-oxo-pyrrolidin-3-yl]ethynyl]phenyl] pyridine-2-carboxamide] | 1.86 nM |
| CN1CC[C@@](O)(C#Cc2cccc(-c3cc(NC4COC4)cc(C(N)=O)n3)c2)C1=O [Example 163, 6-[3-[2-[(3R)-3-hydroxy-1-methyl-2-oxo-pyrrolidin-3-yl]ethynyl]phenyl]-4-(oxetan-3-ylamino)pyridine-2-carboxamide] | 0.21 nM |
| CC(=O)Nc1cc(C(N)=O)nc(-c2cccc(C#C[C@]3(O)CCN(C)C3=O)c2)c1 [Example 175, 4-acetamido-6-[3-[2-[(3R)-3-hydroxy-1-methyl-2-oxo-pyrrolidin-3-yl]ethynyl]phenyl] pyridine-2-carboxamide] | 0.08 nM |

| SMILES | Ki |
| --- | --- |
| CN1CC[C@@](O)(C#Cc2cccc(-c3cc(O)cc(C(N)=O)n3)c2)C1=O [Example 176, 4-hydroxy-6-[3-[2-[(3R)-3-hydroxy-1-methyl-2-oxo-pyrrolidin-3-yl]ethynyl]phenyl] pyridine-2-carboxamide] | 0.96 nM |
| CN1CC[C@@](O)(C#Cc2cc(-c3nc(C(N)=O)cc4c3cnn4C)ccc2F)C1=O [Example 177, 4-[4-fluoro-3-[2-[(3R)-3-hydroxy-l-methyl-2-oxo-pyrrolidin-3-yl]ethynyl]phenyl]-1-methyl-pyrazolo [4,3-c]pyridine-6-carboxamide] | < 0.05 nM |
| Cc1c(O)cc(-c2cccc(C#C[C@]3(O)CCN(C)C3=O)c2)nc1C(N)=O [Example 178, 4-hydroxy-6-[3-[2-[(3R)-3-hydroxy-1-methyl-2-oxo-pyrrolidin-3-yl]ethynyl]phenyl]-3-methyl-pyridine-2-carboxamide] | 2.87 nM |
| COc1cc(C(N)=O)nc(-c2cc(C#C[C@]3(O)CCN(C)C3=O)ccc2F)c1 [Example 179, 6-[2-fluoro-5-[2-[(3R)-3-hydroxy-l-methyl-2-oxo-pyrrolidin-3-yl]ethynyl]phenyl]-4-methoxy-pyridine-2-carboxamide] | < 0.05 nM |
| COc1cc(C(N)=O)nc(-c2ccc(F)c(C#C[C@]3(O)CCN(C)C3=O)c2)c1 [Example 180, 6-[4-fluoro-3-[2-[(3R)-3-hydroxy-1-methyl-2-oxo-pyrrolidin-3-yl]ethynyl]phenyl]-4-methoxy-pyridine-2-carboxamide] | < 0.05 nM |
| COc1cc(-c2cccc(C#C[C@]3(O)CCN(C)C3=O)c2)nc(C(N)=O)c1OC [Example 181, 6-[3-[2-[(3R)-3-hydroxy-l-methyl-2-oxo-pyrrolidin-3-yl]ethynyl]phenyl]-3,4-dimethoxy-pyridine-2-carboxamide] | 3.67 nM |
| CN1CC[C@@](O)(C#Cc2cccc(-c3cc(-n4ccnc4)cc(C(N)=O)n3)c2)C1=O [Example 182, 6-[3-[2-[(3R)-3-hydroxy-l-methyl-2-oxo-pyrrolidin-3-yl]ethynyl]phenyl]-4-imidazol-1-yl-pyridine-2-carboxamide] | 0.17 nM |
| COCc1cc(-c2cccc(C#C[C@]3(O)CCN(C)C3=O)c2)nc(C(N)=O)n1 [Example 183, 4-[3-[2-[(3R)-3-hydroxy-l-methyl-2-oxo-pyrrolidin-3-yl]ethynyl]phenyl]-6-(methoxymethyl)pyrimidine-2-carboxamide] | 0.49 nM |
| CN1CC[C@@](O)(C#Cc2cc3c(c(-c4nccc(C(N)=O)n4)c2)CCN3)C1=O [Example 184, 2-[6-[2-[(3R)-3-hydroxy-1-methyl-2-oxo-pyrrolidin-3-yl]ethynyl]indolin-4-yl] pyrimidine-4-carboxamide] | 0.14 nM |
| COc1cc(C(N)=O)nc(-c2cccc(C#C[C@]3(O)CCN(C)C3=O)c2)c1F [Example 185, 5-fluoro-6-[3-[2-[(3R)-3-hydroxy-1-methyl-2-oxo-pyrrolidin-3-yl]ethynyl]phenyl]-4-methoxy-pyridine-2-carboxamide] | 0.5 nM |
| CN1CC[C@@](O)(C#Cc2cccc(-c3nc(C(N)=O)cc4c3OCC4)c2)C1=O [Example 186, 7-[3-[2-[(3R)-3-hydroxy-1-methyl-2-oxo-pyrrolidin-3-yl]ethynyl]phenyl]-2,3-dihydrofuro[1,3-c]pyridine-5-carboxamide] | 0.14 nM |
| CN1CC[C@@](O)(C#Cc2cccc(-c3ccc(C(F)F)c(C(N)=O)n3)c2)C1=O [Example 187, 3-(difluoromethyl)-6-[3-[2-[(3R)-3-hydroxy-1-methyl-2-oxo-pyrrolidin-3-yl]ethynyl]phenyl]pyridine-2-carboxamide] | 0.06 nM |
| CN1CC[C@@](O)(C#Cc2cccc(-c3nc(C(N)=O)ccc3C(F)F)c2)C1=O [Example 188, 5-(difluoromethyl)-6-[3[2-[(3R)-3-hydroxy-1-methyl-2-oxo-pyrrolidin-3-yl]ethynyl]phenyl]pyridine-2-carboxamide] | 9.53 nM |
| CN1CC[C@@](O)(C#Cc2cccc(-c3cc(OCC(F)(F)F)cc(C(N)=O)n3)c2)C1=O [Example 189, 6-[3-[2-[(3R)-3-hydroxy-1-methyl-2-oxo-pyrrolidin-3-yl]ethynyl]phenyl]-4(2,2,2-trifluoroethoxy)pyridine-2-carboxamide] | 0.15 nM |
| CN1CC[C@@](O)(C#Cc2cccc(-c3cc(-n4cc(F)cn4)cc(C(N)=O)n3)c2)C1=O [Example 190, 4-(4-fluoropyrazol-1-yl)-6-[3-[2-[(3R)-3-hydroxy-1-methyl-2-oxo-pyrrolidin-3-yl]ethynyl]phenyl]pyridine-2-carboxamide] | < 0.05 nM |
| COc1cc(C(N)=O)nc(-c2cc(C#C[C@]3(O)CCN(C)C3=O)c(F)cc2F)c1 [Example 191, 6[2,4-difluoro-5-[2-[(3R)-3-hydroxy-l-methy1-2-oxo-pyrrolidin-3-yl]ethynyl]phenyl]-4-methoxy-pyridine-2-carboxamide] | < 0.05 nM |
| CN1CC[C@@](O)(C#Cc2cccc(-c3nc(C(N)=O)c4c(n3)N(C)CC4)c2)C1=O [Example 192, 2-[3-[2-[(3R)-3-hydroxy-1-methyl-2-oxo-pyrrolidin-3-yl]ethynyl]phenyl]-7-methyl-5,6-dihydropyrrolo[2,3-d] pyrimidine-4-carboxamide] | 0.4 nM |
